For one test, the system named is Anilocra physodes. Nature of the test: Oral hexaflumuron against infestation with a parasitic isopod (Example 9). Format: in vivo, Sea bass (Dicentrarchus labrax). The procedure:
In this trial, hexaflumuron was administered orally in order to test the effect against infestations with the parasitic isopod Anilocra physodes in Sea bass (Dicentrarchus labrax).
150,000 Sea bass (Dicentrarchus labrax) having an average weight of 2 grams were transferred from a hatchery facility and distributed into 5 cages each containing 30,000 fish. The trial was carried out in a food fish facility in the Mediterranean where the sea water temperature varied in the range of 15.0-25.0°C throughout the trial period.
Fish in four cages were fed medicated feed at an amount corresponding to 0.5% of the total biomass per day for 6 days, corresponding to 10 mg hexaflumuron/kg fish per day. One week after the medication and subsequently every three weeks the number of parasites on the fish was monitored.

For test [1], the system named is sea lice. As to the kind of experiment: Oral hexaflumuron treatment of naturally sea lice infected salmon in sea cages (Example 1). It is filed as in vivo, Atlantic salmon (Salmo salar). The conditions noted are these: 9 mg per kg each day for 10 days. How it is done: The treatment dosage was 9 mg hexaflumuron per kg fish per day for 10 days. This is indicated by "Groups/Timepoints" in the figure; • Figure 2 relates to the trial in Example 2 that was carried out on Atlantic salmon (Salmo salar). […] The treatment dosage varied between 3 - 9 mg hexaflumuron and 9- 12 mg fluazuron per kg fish per day for 7 days. This is indicated by "Groups/Timepoints" in the diagram. […] The treated groups are compared to an untreated control group. The treatment dosage was 4 mg hexaflumuron per kg fish per day for 5 days. This is indicated by "Groups/Timepoints" in the figure. Cage 2 = controls, Cage 4-6 = treated groups, 16.6.97 = time point for sea transfer and 5.8.97= controls treated by bathing with deltamethrin; • Figure 4 relates to the trial described in Example 5, which was carried out on sea trout (Salmo trutta). […] The treated groups are compared with an untreated control group. The dosage for oral treatment was 4 mg hexaflumuron per kilo fish per day for 5 days, and 5 ppm hexaflumuron as a 30 minute bath treatment. This is indicated by "Groups/Timepoints" in the figure. Cage 1.4 = Controls, cage 1.3 = Oral treatment, cage 1.2 = Bath treatment. […] The treated groups are compared with an untreated control group, and one group that has been treated orally with teflubenzuron (10 mg/kg of teflubenzuron per kg fish per day for 7 days). […]

The subject of test [2] is sea lice. Nature of the test: Injection of 9 active substances, protective effect against sea lice (Example 8). The conditions noted are these: for lice on average: T3, 70 days after injection, about 50 mg/kg, control group 5.6. It is filed as in vivo, salmon smolt. How it is done: The treatment dosage was 9 mg hexaflumuron per kg fish per day for 10 days. This is indicated by "Groups/Timepoints" in the figure; • Figure 2 relates to the trial in Example 2 that was carried out on Atlantic salmon (Salmo salar). […] The treatment dosage varied between 3 - 9 mg hexaflumuron and 9- 12 mg fluazuron per kg fish per day for 7 days. This is indicated by "Groups/Timepoints" in the diagram. […] The treated groups are compared to an untreated control group. The treatment dosage was 4 mg hexaflumuron per kg fish per day for 5 days. This is indicated by "Groups/Timepoints" in the figure. Cage 2 = controls, Cage 4-6 = treated groups, 16.6.97 = time point for sea transfer and 5.8.97= controls treated by bathing with deltamethrin; • Figure 4 relates to the trial described in Example 5, which was carried out on sea trout (Salmo trutta). […] The treated groups are compared with an untreated control group. The dosage for oral treatment was 4 mg hexaflumuron per kilo fish per day for 5 days, and 5 ppm hexaflumuron as a 30 minute bath treatment. This is indicated by "Groups/Timepoints" in the figure. Cage 1.4 = Controls, cage 1.3 = Oral treatment, cage 1.2 = Bath treatment. […] The treated groups are compared with an untreated control group, and one group that has been treated orally with teflubenzuron (10 mg/kg of teflubenzuron per kg fish per day for 7 days). The dosage for oral treatment was 5.6 mg hexaflumuron per kg fish per day for 7 days, and 5 ppm hexaflumuron as a 30 minute bath treatment. […] End of treatment: 22.10.97, Sea transfer: 23.10.97. T1 = 3 weeks post end of treatment, T2 = 5 weeks post end of treatment, T3 = 9 weeks post end of treatment, T4 = 12 weeks post end of treatment; • Figure 6 relates to the trial in Example 6 at time points 4-6, with the same trial parameters as for Figure 5. T5 = 15 weeks post end of treatment, T6 = 17 weeks post end of treatment. Cage 3 and 4 were treated by bath with deltamethrin after sea lice counting at T4 (12.01.98); • Figure 7 relates to the trial described in Example 7 where salmon were injected on 17.12.97 with two formulations (groups L and R, respectively) of hexaflumuron and a vaccine formulation without hexaflumuron (control). […] The vaccinated fish was transferred to sea water on 09.01.98; • Figure 8 summarises the trial of Example 8 where salmon smolts were injected with 9 different active substances on 08.07.98. Only results for Moxidectin (Mox.), Lufenuron (Luf.) and hexaflumuron in Apoject 1-Fural (Hex.Apo) and in animal oil (Hex.oil) are shown, and • Figure 9 summarises the trial described in Example 10 where salmon were injected on 03.12.97 with 3 different formulations of hexaflumuron (Hexa 1, Hexa 2 and Hexa 3). The fish were transferred to sea water at T0.
In this trial 9 different active substances were tested for protective effect against sea lice. 1,200 salmon smolt were, prior the start of the trial, vaccinated with a commercial vaccine, ALPHA JECT 5100.
One week after sea water transfer the salmon was divided into 12 groups and injected with different formulations of the 9 different active substances. In parallel with the 12 groups, a 13th group comprising 50 fish of the same origin and size was injected with a saline (PBS) solution without active substance. This group served as negative control/reference group in respect of sea lice infestations. The groups were marked by fin cutting and distributed randomly into 3 cages.
The active substances that were used as injection were hexaflumuron, buprofezin, diflubenzuron, fluazuron, lufenuron, ivermectin, doramectin, moxidectin and milbemycin oxime, respectively. All the fish were injected with 0.2 ml of the various injection formulations. Hexaflumuron, buprofezin, fluazuron, lufenuron and diflubenzuron were administered at a dosage of about 50 mg/kg whereas ivermectin, doramectin and moxidectin were administered at a dosage of 0.2 mg/kg (recommended dosage for mammals). […]

Take `O=C(NC(=O)c1c(F)cccc1F)Nc1cc(Cl)c(OC(F)(F)C(F)F)c(Cl)c1` [hexaflumuron]: in the test with Anilocra physodes (one week after the medication period (10 mg/kg fish per day, 6 days), control 0.1 louse), the “parasites found in the treated groups” value is on record as “no parasites were found”. The “period of effect against Anilocra physodes after medication” value with Anilocra physodes (oral 10 mg/kg fish per day for 6 days) is given as “about 3 weeks”. Besides, the “average parasites in the treated groups” value in the test with Anilocra physodes (three weeks after the medication period, control 0.4 louse) came to 0.15 louse. The “reduction of sensitive chalimus and pre-adult stages” value in the test on sea lice [1] was “about 95%”. In addition, the “reduced the number of lice as compared to the control group” value in the test with sea lice [1] (medicated pellets, 7.6 - 9.4°C) was “more than 90%”. Moreover, the “protection against sea lice” value is recorded as “showed protection” in the test on sea lice [2] (T2, 40 days after injection, hexaflumuron, lufenuron about 50 mg/kg, moxidectin 0.2 mg/kg) and “no protection” in the test on sea lice [2] (T3, hexaflumuron in an aqueous suspension (PBS)). Also, the lice on average came out at 0 in the test with sea lice [2] (formulated in Apoject 1-Fural) and 0.8 in the test with sea lice [2] (formulated in animal oil). The “number of sea lice versus control group” value in the test with sea lice [2] (T8 (218 days after injection), hexaflumuron in Apoject 1-Fural, animal oil) is reported as “significantly lower”. Besides, the “significant protection against sea lice until and including T10, time after injection” value in the test on sea lice [2] (hexaflumuron formulated in Apoject 1-Fural or in animal oil) worked out at 9 months. Moreover, the “prophylactic effect against sea lice” value in the test on sea lice [2] (two groups of fish injected with hexaflumuron) was no more than 10 months.

Values taken from patent EP1306084A1, “Compositions for the control of parasitic infestations in fish” (Alpharma AS, priority 1998, dated 1999).
